Test: Solid form stability under exposure to water / humidity
Format: physicochemical

| Structure (SMILES) | stability compared with afatinib dimaleate Form A (40° C., 75% RH) | stable under exposure to water vapor under ambient conditions (about 25° C., >90% RH) | stable at about 40° C., 75% RH (about 40° C., 75% RH) | stability under exposure to water (exposure to water) | completely converts to a hydrated species (40° C., 75% RH) |
| --- | --- | --- | --- | --- | --- |
| CN(C)C/C=C/C(=O)Nc1cc2c(Nc3ccc(F)c(Cl)c3)ncnc2cc1O[C@H]1CCOC1.O=C(O)/C=C\C(=O)O.O=C(O)/C=C\C(=O)O [Form Z, afatinib dimaleate] | more stable than afatinib dimaleate Form A | about 3 days | over 19 days | stable under exposure to water | – |
| CN(C)C/C=C/C(=O)Nc1cc2c(Nc3ccc(F)c(Cl)c3)ncnc2cc1O[C@H]1CCOC1.O=C(O)/C=C\C(=O)O.O=C(O)/C=C\C(=O)O [Afatinib dimaleate Form A, afatinib dimaleate] | – | – | – | – | ≤ 11 days |

Reference: patent US11136314B2, “Forms of afatinib dimaleate” (Johnson Matthey Public Limited Company, priority 2017, dated 2021)
